We go through 1 compound from patent US20260151391A1, “TREATMENT OF MITOCHONDRIAL DISEASES WITH sGC STIMULATORS” (Tisento Therapeutics Inc., priority 2022, published 2026).

By EC50 is commonly meant the concentration that produces a half-maximal response.

Assay [1] relates to sGC enzyme. As to the kind of experiment: cGMP GloSensor cell-based assay, 384-well format. The conditions noted are these: HEK293 GloSensor 40F cGMP cells, 10 μM DETA-NONOate; geometrical mean; I-20 and I-14: average of free acid and sodium salt; read-out: Glo EC50. More on the design: species or system human. The source says: Human embryonic kidney cells (HEK293) cells expressing GloSensor™ 40F cGMP (Part No: CS182801, Promega) were used to evaluate the activity of test compounds. The luminescent biosensors (engineered luciferase) that were incorporated into these cells detect cGMP formed by the compounds stimulating the sGC enzyme and emit luminescence.
cGMP GloSensor cells were maintained in Dulbecco's Modification of Eagle's Medium (DMEM) supplemented with fetal bovine serum (FBS, 10% final) and hygromycine (200 ug/ml). The day before assay, cells were plated in DMEM with 10% FBS in a 50 μL volume at a density of 1.5×10^4 cells/well in a poly-D-lysine coated 384-well flat white-bottom plate (Corning Cat No 35661). […] Test compounds and Diethylenetriamine NONOate (DETA-NONOate) was diluted to 3 mM (20×) in serum-free CO2 independent medium and serially diluted at 4× dilutions to create 5× dose curve from which 10 ul was added to the wells (x μM concentration for test compound solution and 10 μM concentration for DETA-NONOate solution; wherein x is one of the following final concentrations: 30 μM, 7.5 μM, 1.9 μM, 469 nM, 117 nM, 29.3 nM, 7.3 nM, 1.83 nM, 0.46 nM, 0.11 nM, 0.03 nM) For the kinetics studies, luminescense was measured right away for 0.2 sec per well with Envision (Perkin Elmer). […]
(§1) Concentration response data were analyzed using a 4-parameter fit (log (agonist) vs. response-variable slope). […]

Assay [2] relates to sGC. As to the kind of experiment: cGMP neuronal cell-based assay (rat primary neurons). The following applies: rat primary hippocampal neurons, DETA-NO 10 μM or 30 μM, cGMP by LC-MS/MS; I-20 and I-14: average of free acid and sodium salt; read-out: sGC Neuron EC50. The method, then:
Rat primary neurons were isolated from fetuses of 18-day pregnant Sprague-Dawley females. The fetuses were collected in Hanks' balanced salt solution (HBSS) and brains were rapidly removed. The cerebral hippocampi were isolated and mechanically fragmented. Further tissue digestion was performed with 0.25% (wt/vol) trypsin solution in HBSS without Ca2+ and Mg2+ for 15 min at 37° C. After trypsination, cells were washed and resuspended in neurobasal medium supplemented with 0.5 mM L-glutamine, 12.5 uM glutamic acid, 2% B-27 and 100 U/mL penicillin, and 100 μg/mL streptomycin. Cells were plated at a density of 26×10^3 or 3×10^4 or 4×10^4 cells/well in a poly-D-lysine coated 384-well flat clear-bottom plate (Corning Cat No 354662). Cells were incubated 6-7 days at 37° C. in a humidified chamber with 5% CO2. Media was removed and cells were washed 1× with HBSS containing Ca2+ and Mg2+, and replaced with 40 uL HBSS containing 0.5 mM IBMX, and incubated for 15 minutes at 37° C. […] Following centrifugation at 4° C. for 5 minutes at 1000×g to pellet cell debris, the supernatant was aspirated to a clean plate and the samples were analyzed for cGMP content. cGMP concentrations were determined from each sample using LC-MS/MS.
as §1

Take `Cc1cc(F)c(Cc2nc(-c3ncc(F)c(O)n3)cn3ccnc23)cc1F` [Compound I-14, 5-fluoro-2-(8-(2,5-difluoro-4-methylbenzyl)imidazo[1,2-a]pyrazin-6-yl)pyrimidin-4-ol]: the EC50 in assay [1] and in assay [2] was at most 0.1 µM in each case.
